Source: patent US20240109900A1, “AZABICYCLIC SHP2 INHIBITORS” (IRBM S.P.A., priority 2021, published 2024)
pIC50: −log10 of the molar value. Like-named read-outs stand apart in the source and are kept apart here.

What was measured:
[1] = molecular target: SHP-2 enzyme (Met1-Leu525) (Homo sapiens (Human), UniProt Q06124); experiment: SHP2 inhibition enzymatic assay; assay type: biochemical; conditions: 0.5 nM SHP-2 activated by 500 nM IRS1 peptide, 75 μM DiFMUP substrate; read-out: SHP2wt-IC50
Procedure, shortened: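 SHP-2 (Met1-Leu525), 0.5 nM, activated with 500 nM IRS1 bis-phosphopeptide, preincubated 30 min with compounds in HEPES pH 7.2 buffer with 5 mM DTT. 75 μM DiFMUP added for 30 min at room temperature, stopped with bpV; fluorescence read. IC50 from four-parameter logistic fit of % inhibition.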

[2] = tested on: ERK phosphorylation in KYSE-520 cells; experiment: Phospho-ERK cellular assay; assay type: cell-based; conditions: KYSE-520 cells, 2 h at 37° C., phospho-ERK1/2 (Thr202/Tyr204) TR-FRET, read-out: PERK IC50
Procedure, shortened: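 TR-FRET read-out of ERK1/2 Thr202/Tyr204 phosphorylation was taken after overnight antibody incubation at room temperature. Before that, KYSE-520 cells were treated 2 h at 37 °C with compound dilutions and lysed 30 min. Percent inhibition relative to vehicle and cell-free wells was fitted four-parametrically to give IC50.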

Chain of SHP-2 enzyme (Met1-Leu525) (Q06124 1-525): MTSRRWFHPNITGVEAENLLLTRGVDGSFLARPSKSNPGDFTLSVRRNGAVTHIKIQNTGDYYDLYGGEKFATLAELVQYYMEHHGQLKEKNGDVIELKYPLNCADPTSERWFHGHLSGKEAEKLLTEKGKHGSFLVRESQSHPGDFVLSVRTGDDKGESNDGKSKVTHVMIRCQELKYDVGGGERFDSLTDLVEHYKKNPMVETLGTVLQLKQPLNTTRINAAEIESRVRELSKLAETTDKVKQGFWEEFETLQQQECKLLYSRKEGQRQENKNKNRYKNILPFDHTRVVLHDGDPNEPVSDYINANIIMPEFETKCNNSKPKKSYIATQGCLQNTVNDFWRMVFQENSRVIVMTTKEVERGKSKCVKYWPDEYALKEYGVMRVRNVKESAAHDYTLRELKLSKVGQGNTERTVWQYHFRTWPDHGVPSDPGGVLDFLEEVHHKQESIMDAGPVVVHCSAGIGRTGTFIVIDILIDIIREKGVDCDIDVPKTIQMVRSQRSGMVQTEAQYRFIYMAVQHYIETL

Compound | pIC50 [1] | pIC50 ([2]; Homo sapiens, KYSE-520, 2 h) | pIC50 [2]
NC[C@]1(c2ccccc2F)[C@@H]2CCN(c3cnc4c(-c5ccc(-c6cc(F)cc(F)c6)cc5Cl)n[nH]c4n3)C[C@@H]21 [Example 323, ((1S,6R,7R)-3-(3-(3-chloro-3′,5′-difluoro-[1,1′-biphenyl]-4-yl)-1H-pyrazolo[3,4-b]pyrazin-6-yl)-7-(2-fluorophenyl)-3-azabicyclo[4.1.0]heptan-7-yl)methanamine] | > 6.30 | > 6.00 | 
NC[C@]1(c2ccccc2F)[C@@H]2CCN(c3cnc4c(-c5ccc6nn(CC(N)=O)cc6c5Cl)n[nH]c4n3)C[C@@H]21 [Example 324, 2-(5-(6-((1S,6R,7R)-7-(aminomethyl)-7-(2-fluorophenyl)-3-azabicyclo[4.1.0]heptan-3-yl)-1H-pyrazolo[3,4-b]pyrazin-3-yl)-4-chloro-2H-indazol-2-yl)acetamide] | > 6.30 | > 6.00 | 
CC(C)n1ncc2c(Cl)c(-c3n[nH]c4nc(N5CC[C@@H]6[C@H](C5)[C@@]6(CN)c5ccccc5F)cnc34)ccc21 [Example 325, ((1S,6R,7R)-3-(3-(4-chloro-1-isopropyl-1H-indazol-5-yl)-1H-pyrazolo[3,4-b]pyrazin-6-yl)-7-(2-fluorophenyl)-3-azabicyclo[4.1.0]heptan-7-yl)methanamine] | > 6.30 | > 6.00 | 
NC[C@]1(c2ccccc2F)[C@@H]2CCN(c3cnc4c(-c5ccc6ncnn6c5)n[nH]c4n3)C[C@@H]21 [Example 327, ((1S,6R,7R)-3-(3-([1,2,4]triazolo[1,5-a]pyridin-6-yl)-1H-pyrazolo[3,4-b]pyrazin-6-yl)-7-(2-fluorophenyl)-3-azabicyclo[4.1.0]heptan-7-yl)methanamine] | > 6.30 | > 6.00 | 
NC[C@]1(c2ccccc2F)[C@@H]2CCN(c3cnc4c(-c5cc(F)cc(F)c5)n[nH]c4n3)C[C@@H]21 [Example 330, ((1S,6R,7R)-3-(3-(3,5-difluorophenyl)-1H-pyrazolo[3,4-b]pyrazin-6-yl)-7-(2-fluorophenyl)-3-azabicyclo[4.1.0]heptan-7-yl)methanamine] | > 6.30 | > 6.00 | 
NC[C@]1(c2ccccc2F)[C@@H]2CCN(c3cnc4c(-c5ccc(O)c(F)c5)n[nH]c4n3)C[C@@H]21 [Example 331, 4-(6-((1S,6R,7R)-7-(aminomethyl)-7-(2-fluorophenyl)-3-azabicyclo[4.1.0]heptan-3-yl)-1H-pyrazolo[3,4-b]pyrazin-3-yl)-2-fluorophenol] | > 6.30 | > 6.00 | 
NC[C@]1(c2ccccc2F)[C@@H]2CCN(c3cnc4c(-c5ccc(O)cc5F)n[nH]c4n3)C[C@@H]21 [Example 332, 4-(6-((1S,6R,7R)-7-(aminomethyl)-7-(2-fluorophenyl)-3-azabicyclo[4.1.0]heptan-3-yl)-1H-pyrazolo[3,4-b]pyrazin-3-yl)-3-fluorophenol] | > 6.30 | > 6.00 | 
NC[C@]1(c2ccccc2F)[C@@H]2CCN(c3cnc4c(-c5ccn6ncnc6c5)n[nH]c4n3)C[C@@H]21 [Example 333, ((1S,6R,7R)-3-(3-([1,2,4]triazolo[1,5-a]pyridin-7-yl)-1H-pyrazolo[3,4-b]pyrazin-6-yl)-7-(2-fluorophenyl)-3-azabicyclo[4.1.0]heptan-7-yl)methanamine] | > 6.30 | > 6.00 | 
NC[C@]1(c2ccccc2F)[C@@H]2CCN(c3cnc4c(C#Cc5ccccc5F)n[nH]c4n3)C[C@@H]21 [Example 334, ((1S,6R,7R)-7-(2-fluorophenyl)-3-(3-((2-fluorophenyl)ethynyl)-1H-pyrazolo[3,4-b]pyrazin-6-yl)-3-azabicyclo[4.1.0]heptan-7-yl)methanamine] | > 6.30 | > 6.00 | 
Cn1cnc2ccc(-c3n[nH]c4nc(N5CC[C@@H]6[C@H](C5)[C@@]6(CN)c5ccccc5F)cnc34)c(Cl)c21 [Example 338, ((1S,6R,7R)-3-(3-(7-chloro-1-methyl-1H-benzo[d]imidazol-6-yl)-1H-pyrazolo[3,4-b]pyrazin-6-yl)-7-(2-fluorophenyl)-3-azabicyclo[4.1.0]heptan-7-yl)methanamine] | > 6.30 | > 6.00 | 
Cn1c(=O)oc2ccc(-c3n[nH]c4nc(N5CC[C@@H]6[C@H](C5)[C@@]6(CN)c5ccccc5F)cnc34)cc21 [Example 341, 5-(6-((1S,6R,7R)-7-(aminomethyl)-7-(2-fluorophenyl)-3-azabicyclo[4.1.0]heptan-3-yl)-1H-pyrazolo[3,4-b]pyrazin-3-yl)-3-methylbenzo[d]oxazol-2(3H)-one] | > 6.30 | > 6.00 | 
Cn1c(N2CC[C@@H]3[C@H](C2)[C@@]3(CN)c2ccccc2F)nc2[nH]nc(-c3ccc(C(N)=O)c4ncccc34)c2c1=O [Example 343, 5-(6-((1S,6R,7R)-7-(aminomethyl)-7-(2-fluorophenyl)-3-azabicyclo[4.1.0]heptan-3-yl)-5-methyl-4-oxo-4,5-dihydro-1H-pyrazolo[3,4-d]pyrimidin-3-yl)quinoline-8-carboxamide] | > 6.30 | < 5.30 | 

Now from value to compound:

pIC50 [1] | pIC50 ([2]; Homo sapiens, KYSE-520, 2 h) | pIC50 [2] | Compound
> 6.30 | > 6.00 |  | NC[C@]1(c2ccccc2F)[C@@H]2CCN(c3cnc4c(-c5ccc(N6CCCC6=O)cc5Cl)n[nH]c4n3)C[C@@H]21 [Example 326, 1-(4-(6-((1S,6R,7R)-7-(aminomethyl)-7-(2-fluorophenyl)-3-azabicyclo[4.1.0]heptan-3-yl)-1H-pyrazolo[3,4-b]pyrazin-3-yl)-3-chlorophenyl)pyrrolidin-2-one]
> 6.30 | > 6.00 |  | Cn1cnc2c(Cl)c(-c3n[nH]c4nc(N5CC[C@@H]6[C@H](C5)[C@@]6(CN)c5ccccc5F)cnc34)ccc21 [Example 329, ((1S,6R,7R)-3-(3-(4-chloro-1-methyl-1H-benzo[d]imidazol-5-yl)-1H-pyrazolo[3,4-b]pyrazin-6-yl)-7-(2-fluorophenyl)-3-azabicyclo[4.1.0]heptan-7-yl)methanamine]
> 6.30 | > 6.00 |  | NC[C@]1(c2ccccc2F)[C@@H]2CCN(c3cnc4c(-c5ccc6nn(C(F)F)cc6c5Cl)n[nH]c4n3)C[C@@H]21 [Example 335, ((1S,6R,7R)-3-(3-(4-chloro-2-(difluoromethyl)-2H-indazol-5-yl)-1H-pyrazolo[3,4-b]pyrazin-6-yl)-7-(2-fluorophenyl)-3-azabicyclo[4.1.0]heptan-7-yl)methanamine]
> 6.30 | > 6.00 |  | Cn1ccc2c(Cl)c(-c3n[nH]c4nc(N5CC[C@@H]6[C@H](C5)[C@@]6(CN)c5ccccc5F)cnc34)ccc2c1=O [Example 336, 6-(6-((1S,6R,7R)-7-(aminomethyl)-7-(2-fluorophenyl)-3-azabicyclo[4.1.0]heptan-3-yl)-1H-pyrazolo[3,4-b]pyrazin-3-yl)-5-chloro-2-methylisoquinolin-1(2H)-one]
> 6.30 | > 6.00 |  | Cc1nc2cc(-c3n[nH]c4nc(N5CC[C@@H]6[C@H](C5)[C@@]6(CN)c5ccccc5F)cnc34)ccc2[nH]1 [Example 337, ((1S,6R,7R)-7-(2-fluorophenyl)-3-(3-(2-methyl-1H-benzo[d]imidazol-5-yl)-1H-pyrazolo[3,4-b]pyrazin-6-yl)-3-azabicyclo[4.1.0]heptan-7-yl)methanamine]
> 6.30 |  | > 6.00 | NC[C@]1(c2ccccc2F)[C@@H]2CCN(c3cnc4c(-c5ccc6c(=O)[nH]ncc6c5Cl)n[nH]c4n3)C[C@@H]21 [Example 340]
